Results reported in patent US8933035B2, “Transglutaminase-activating peptide and cosmetic or pharmaceutical composition containing same” (ISP Investments Inc., priority 2009, dated 2015).

What was measured:
[1] = system: TG2; experiment: immunolabelling of TG2 in ex vivo human skin biopsies; type: cell-based; details: cultivated ex vivo skin biopsies, 0.5 ppm topically, 24 hours
Experimental: (§1) Biopsies of human skin were placed in culture at the air/liquid interface. A 1% solution of a mother solution containing 50 ppm of peptide SEQ ID NO: 5 was applied topically over 24 hours. For the labellings of TG1 and TG2, the skin biopsies were then enclosed in resin and frozen in nitrogen. Sections of approximately 6 μm were then made by cryostat. Immunolabelling was carried out by means of a specific antibody; anti-TG1 (Clinisciences BT-621, mouse monoclonal) or anti-TG2 (ABCAM® ab2972 antibody, rabbit polyclonal), then by means of a suitable secondary antibody coupled to a fluorescent marker. The skin sections were then examined under epifluorescence microscope (ECLIPSE® E 80i microscope by Nikon Corporation).

[2] = system: TG2; experiment: immunofluorescence labelling of TG2 in cultured normal human keratinocytes; type: cell-based; details: 0.5 ppm, 24 hours
Experimental: (§2) The objective of this study was to determine the influence of peptide SEQ ID NO: 5 on the expression of the different transglutaminases expressed in the human skin. To this end, a culture of normal human keratinocytes (NHKs) and a skin biopsy were subjected to specific labellings by immunofluorescence. Cultures of normal human fibroblasts were also labelled by immunofluorescence, specifically for TG2, which is expressed in these types of cell. Cultured NHKs were treated with a 1% solution of a mother solution containing 50 ppm of peptide SEQ ID NO: 5 for 24 hours. For immunolabelling by the anti-TG1 antibody, the cells were washed and fixed with 3.7% paraformaldehyde for 10 minutes. The cells were then incubated in the presence of a specific anti-TG1 antibody (Clinisciences BT-621, mouse monoclonal), then in the presence of a suitable secondary antibody coupled to a fluorescent marker. For the other immunolabellings, the cells were washed and fixed with cold methanol for 1 minute. The cells were then incubated in the presence of a specific antibody; anti-TG2 (ABCAM® ab2972 antibody, rabbit polyclonal), anti-TG3 (ABCAM® ab53236 antibody, mouse monoclonal) or anti-TG5 (ABCAM® ab26992 antibody, rabbit polyclonal). After mounting in a medium ad hoc, the slides were observed under epifluorescence microscope (ECLIPSE® E 80i microscope by Nikon Corporation).

[3] = system: TG5; experiment: immunofluorescence labelling of TG5 in cultured normal human keratinocytes; type: cell-based; details: 0.5 ppm, 24 hours
Experimental: as §2

[4] = system: biopsies of human skin; experiment: epidermal differentiation, morphology of skin sections ex vivo; type: cell-based; details: 0.5 ppm topically, 24 hours
Experimental: (§3) Biopsies of human skin were placed in culture at the air/liquid interface. A 1% solution of a mother solution containing 50 ppm of peptide SEQ ID NO: 5 was applied topically over 24 hours. The biopsies were then enclosed in paraffin and histological sections 3 μm thick were made. The slides were deparaffined, hydrated, then immunolabelled by an antibody directed against TG1 (Clinisciences BT-621, mouse monoclonal) or cyto-pankeratins (NOVOCASTRA® NCL-CK10 antibody, mouse monoclonal), or loricrin (ABCAM® ab24722 antibody, rabbit polyclonal), or involucrin (NOVOCASTRA® NCL-INV antibody, clone SY5, mouse monoclonal) or filaggrin (Tebu Santa Cruz sc-58761, mouse monoclonal). For easier observation, the rings of the cells can be counter-stained by DAPI (4′,6′ di amidine-2-phenyl indole, a blue fluorescent molecule capable of binding strongly to DNA). A suitable secondary antibody coupled to a fluorescent marker was then used. After mounting in a medium ad hoc, the slides were observed under epifluorescence microscope (ECLIPSE® E 80i microscope by Nikon Corporation).

[5] = system: pankeratins; experiment: immunolabelling of epidermal differentiation marker pankeratins; type: cell-based, human; details: 0.5 ppm, 24 hours; labelled in skin biopsies
Description: (§4) The objective of this study was to determine the influence of peptide SEQ ID NO: 5 on epidermal differentiation. To this end, the expression of the main markers of epidermal differentiation, expressed specifically in the keratinocytes in the suprabasal layers, were studied. The tested markers are transglutaminase 1, pankeratins, filaggrin, involucrin and loricrin. On the other hand, filaggrin, involucrin and loricrin are precursors of the cornified envelope and of transglutaminase substrates.
as §3, with “A suitable secondary antibody coupled to a fluorescent marker was then used. After mounting in a medium ad hoc, the slides were observed under epifluorescence microscope (ECLIPSE® E 80i microscope by Nikon Corporation).” left out

[6] = system: biopsies of human skin; experiment: study of epidermal regeneration, histology of skin biopsies; type: cell-based; details: 1% of 50 ppm mother solution topically, 24 hours
Experimental: Biopsies of human skin were placed in culture at the air/liquid interface. A 1% solution of a mother solution containing 50 ppm of peptide SEQ ID NO: 5 was applied topically, then the samples were incubated for 24 hours. The skin biopsies were then enclosed in paraffin and histological sections 3 μm thick were made. The sections were deposited on Superfrost Plus slides (Menzel Glaser, Thermo Scientific), then deparaffined in xylene and rehydrated in a series of alcohol-water solutions. The sections were then stained by 50% haematoxylin for 3 minutes, rinsed, then stained with 60% eosin for 3 minutes and rinsed in water. The sections were then dehydrated, mounted in Eukitt and examined by optical microscopy.

[7] = system: TG3; experiment: immunofluorescence labelling of TG3 in cultured normal human keratinocytes; type: cell-based; details: 0.5 ppm, 24 hours
Experimental: as §2

[8] = system: loricrin; experiment: immunolabelling of epidermal differentiation marker loricrin; type: cell-based, human; details: 0.5 ppm, 24 hours; cultured NHKs and skin biopsies
Description: as §4
(§5) Cultured NHKs were treated with a 1% solution of a mother solution containing 50 ppm of peptide SEQ ID NO: 5 for 24 hours. The cells were then washed and fixed with 3.7% paraformaldehyde for 10 minutes. After unmasking of specific sites, the cells were incubated in the presence of a specific antibody directed against TG1 (Clinisciences BT-621, mouse monoclonal), or against loricrin (ABCAM® ab24722 antibody, rabbit polyclonal), or involucrin (NOVOCASTRA® NCL-INV antibody, mouse monoclonal, clone SY5), then incubated in the presence of a suitable secondary antibody coupled to a fluorescent marker. For easier observation, the rings of the cells can be counter-stained by DAPI (4′,6′ di amidine-2-phenyl indole), a blue fluorescent molecule capable of binding strongly to DNA). […]

[9] = system: TG3; experiment: immunolabelling of TG3 in ex vivo human skin biopsies; type: cell-based; details: cultivated ex vivo skin biopsies, 0.5 ppm topically, 24 hours
Experimental: Biopsies of human skin were placed in culture at the air/liquid interface. A 1% solution of a mother solution containing 50 ppm of peptide SEQ ID NO: 5 was applied topically over 24 hours.
For the labellings of TG3, the skin biopsies were enclosed in paraffin and histological sections 3 μm thick were made. The slides were deparaffined, hydrated, then immunolabelled by an antibody directed against TG3 (ABCAM® ab53236 antibody, mouse monoclonal), then by a suitable secondary antibody coupled to a fluorescent marker. The skin sections were then examined under epifluorescence microscope (ECLIPSE® E 80i microscope by Nikon Corporation).

[10] = system: TG1; experiment: immunolabelling of epidermal differentiation marker TG1; type: cell-based, human; details: 0.5 ppm, 24 hours; cultured NHKs and skin biopsies
Description: as §4, §5

[11] = system: loricrin; experiment: immunoblot of loricrin in cultured NHKs; type: cell-based, human; details: 1% of 50 ppm mother solution, 24 hours
Experimental: (§6) Cultured NHKs were treated with a 1% solution of a mother solution containing 50 ppm of peptide SEQ ID NO: 5 for 24 hours. The cells were then rinsed and detached from the support by scraping in a RIPA buffer in the presence of a cocktail of protease inhibitors (Thermo Scientific, Rockford, USA). The lysed cells were centrifuged at 4° C. at 10,000 rpm for 20 minutes and the supernatants were collected. The samples were then standardised by assaying of the proteins by BCA kit (Pierce, France). The samples were mixed, then subjected to electrophoresis on NUPAGE® 3-8% tris-acetate gel in a NuPAGE NUPAGE® tris-acetate migration buffer, then blotted on a membrane of nitrocellulose by means of a blotting device (Invitrogen, Paisley, UK). The membranes were saturated in 5 TBS milk for 2 hours at ambient temperature, then incubated at 4° C. overnight with a primary antibody directed against TG1 (Clinisciences BT-621, monoclonal mouse) or against involucrin (NOVOCASTRA®NCL-INV antibody, clone SY5, mouse monoclonal) or against loricrin (ABCAM® ab24722 antibody, rabbit polyclonal). After washing by 0.05% TBS-Tween buffer, the membrane was incubated with a suitable secondary antibody coupled to peroxidase. The blots were then developed by means of a chemiluminescent substrate (SuperSignal West Dura Extended Duration Substrate, Pierce, Brebiere, France).

[12] = system: transglutaminases; experiment: total enzyme activity of transglutaminases in normal human keratinocytes (fluorescein-labelled cadaverine substrate); type: cell-based; details: NHKs, 0.5 ppm
Experimental: The objective of this study was to determine the influence of peptide SEQ ID NO: 5 on the total activity of transglutaminases in normal human keratinocytes (NHKs). To this end, the total enzyme activity of transglutaminases was assayed by spectrophotometry by means of an amino acid donor substrate, the amino acids being labelled with fluorescein.
NHKs were placed in black 96-well plates. After four days of culture, the NHKs were treated with a 1% solution of a mother solution containing 50 ppm of peptide SEQ ID NO: 5 for 24 or 48 hours (the active ingredient was added every 24 hours). A positive control was created by treating the cells with EGCG (epigallocatechin gallate, the main polyphenol ingredient in green tea) at a concentration of 20 μg/ml. The substrate used was cadaverine labelled with fluorescein (Invitrogen A10466) diluted to 100 μM in the culture medium. […] After two rinses in ethanol, then three rinses in the HBSS buffer, 100 μl of PBS were added to each well and a reading was taken by spectrophotometer at excitation wavelengths of 485 nm and emission wavelengths of 530 nm. Under these conditions, the transglutaminase activity was proportional to the amount of fluorescence emitted (expressed in fluorescence units), based on the total amount of proteins present in each well, previously assayed by the BCA technique.

[13] = system: TG1; experiment: immunolabelling of TG1 in ex vivo human skin biopsies; type: cell-based; details: cultivated ex vivo skin biopsies, 0.5 ppm topically, 24 hours
Experimental: as §1

[14] = system: TG2; experiment: immunofluorescence labelling of TG2 in cultured normal human fibroblasts; type: cell-based; details: 0.5 ppm, 24 hours
Experimental: as §2, with “Corporation). […]” for “Corporation).”

[15] = system: involucrin; experiment: immunoblot of involucrin in cultured NHKs; type: cell-based, human; details: 1% of 50 ppm mother solution, 24 hours
Experimental: as §6

[16] = system: human fibroblasts; experiment: Ibidi in vitro healing model of fibroblast regeneration; type: cell-based; details: 0.5 ppm and 1.5 ppm
Experimental: The Ibidi in vitro healing model was used (Biovalley, Marne la Vallée, France). Human fibroblasts were sown in two separate compartments of an Ibidi insert, which was then placed in a culture dish. On confluence, the insert was removed, thus creating an acellular zone measuring 400 μm wide between the two cellular lawns. The peptide diluted to 1% and 3% from a mother solution containing 50 ppm of peptide SEQ ID NO: 5 was then added to the culture medium, and the treatment was carried out for 48 hours with renewal of the active ingredient every 24 hours. Inspection by phase contrast microscopy (Olympus CK40 microscope, ×5, connected to an Olympus E-510 camera) was carried out at different times (0 to 48 hours) during the migration process.

[17] = system: filaggrin; experiment: immunolabelling of epidermal differentiation marker filaggrin; type: cell-based, human; details: 0.5 ppm, 24 hours; labelled in skin biopsies
Description: as §4
as §3, with “A suitable secondary antibody coupled to a fluorescent marker was then used. After mounting in a medium ad hoc, the slides were observed under epifluorescence microscope (ECLIPSE® E 80i microscope by Nikon Corporation).” left out

[18] = system: TG1; experiment: immunofluorescence labelling of TG1 in cultured normal human keratinocytes; type: cell-based; details: 0.5 ppm, 24 hours
Experimental: as §2

[19] = system: involucrin; experiment: immunolabelling of epidermal differentiation marker involucrin; type: cell-based, human; details: 0.5 ppm, 24 hours; cultured NHKs and skin biopsies
Description: as §4, §5

[20] = system: TG1; experiment: immunoblot of TG1 in cultured NHKs; type: cell-based, human; details: 1% of 50 ppm mother solution, 24 hours
Experimental: as §6

SEQ ID NO: 5 (RRGQ)
expression of TG2 (immunofluorescence) [1]: stimulates the expression | expression of TG2 (immunofluorescence) [2]: stimulates the expression | expression of TG5 (immunofluorescence) [3]: stimulates the expression | epidermal differentiation, cornified layer morphology [4]: thicker cornified layer | expression of pankeratins (immunofluorescence) [5]: stimulates the expression | cells of the basal layer in histological sections of epidermis [6]: Greater density of the cells of the basal layer | cornified layer in histological sections of epidermis [6]: neo-synthesis of the cornified layer, which appears thicker and better hydrated | expression of TG3 (immunofluorescence) [7]: stimulates the expression | expression of loricrin (immunofluorescence) [8]: stimulates the expression | expression of TG3 (immunofluorescence) [9]: stimulates the expression | expression of TG1 as differentiation marker (immunofluorescence) [10]: stimulates the expression | increase in expression of loricrin (quantitative analysis of immunoblots) [11]: 16% | increase in total transglutaminase enzyme activity compared to the untreated control ([12]; after 24 hours): 30% | increase in total transglutaminase enzyme activity compared to the untreated control ([12]; after 48 hours): 47.7% | expression of TG1 (immunofluorescence) [13]: stimulates the expression | expression of TG2 (immunofluorescence) [14]: stimulates the expression | increase in expression of involucrin (quantitative analysis of immunoblots) [15]: 30% | dose dependence of the effect on fibroblast invasion [16]: dose-dependent | invasion of the acellular zone with fibroblasts compared to control ([16]; 0 to 48 hours): quicker | expression of filaggrin (immunofluorescence) [17]: stimulates the expression | expression of TG1 (immunofluorescence) [18]: stimulates the expression | expression of involucrin (immunofluorescence) [19]: stimulates the expression | increase in expression of TG1 (quantitative analysis of immunoblots) [20]: 20%
